{"source": "patent US6420427B1", "about": "“Aminobutyric acid derivatives” (Ono Pharmaceutical Co., Ltd., priority 1997, dated 2002)", "format_in_all_cases": "biochemical", "key": {"human stromelysin": {"target": "T1, human stromelysin (Homo sapiens, UniProt P08254)", "T1 construct": "purchased Yagai", "T1 sequence (P08254 100-477)": "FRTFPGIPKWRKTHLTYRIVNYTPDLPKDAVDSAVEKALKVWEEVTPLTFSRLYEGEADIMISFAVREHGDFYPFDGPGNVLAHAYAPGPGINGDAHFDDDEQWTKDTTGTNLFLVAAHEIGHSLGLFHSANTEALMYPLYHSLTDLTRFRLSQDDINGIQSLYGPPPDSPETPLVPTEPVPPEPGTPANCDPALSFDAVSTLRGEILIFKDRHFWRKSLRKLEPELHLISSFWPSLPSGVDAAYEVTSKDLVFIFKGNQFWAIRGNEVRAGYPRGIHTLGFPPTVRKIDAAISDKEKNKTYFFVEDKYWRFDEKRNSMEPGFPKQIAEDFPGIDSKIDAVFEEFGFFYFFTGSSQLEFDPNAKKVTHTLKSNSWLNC", "test": "Inhibitory activity against stromelysin", "conditions": "APMA-activated, substrate NFF-3, pH 7.5, 37° C.", "method": "(3) Inhibitory Activity Against Stromelysin ps [Method]\nThe mixture of human stromelysin (Yagai; 9 volume) and 10 mM p-aminophenylmercury acetate (1 volume) was activated for 20 hours at 37° C. A solution of the test compound in dimethylsulfoxide (10 μl) and 0.5 mM solution (10 μl) of 10 mM solution of the synthetic substrate NFF-3 (Mca-Arg-Pro-Lys-Pro-Val-Glu-Nva-Trp-Arg-Lys(DNP)-NH2., Nva: norvaline, Peptide Laboratory) in dimethylsulfoxide diluted by water were added to assay buffer (50 mM tris-HCl, 10 mM CaCl2, 0.05% Brij35, 0.02% NaN3 (pH 7.5)) (150 μl). Furthermore, assay buffer (30 μl) was added to the mixture. The mixture was incubated for 10 minutes at 37° C. The reaction was started by addition of a solution of the above activated stromelysin solution (50 μl). The enzyme activity was represented by increasing value of fluorescent intensity [Ex=325 nm (Ex)/393 nm (Em)] per 1 minute. Inhibitory activity was represented by inhibitory percentage (%) per enzyme activity without the test compound."}, "gelatinase A": {"target": "T2, gelatinase A (Homo sapiens, UniProt P08253)", "T2 construct": "endogenous in cells; host or cells: human normal skin dermal fibroblasts (HNDF)", "T2 sequence (P08253 110-660)": "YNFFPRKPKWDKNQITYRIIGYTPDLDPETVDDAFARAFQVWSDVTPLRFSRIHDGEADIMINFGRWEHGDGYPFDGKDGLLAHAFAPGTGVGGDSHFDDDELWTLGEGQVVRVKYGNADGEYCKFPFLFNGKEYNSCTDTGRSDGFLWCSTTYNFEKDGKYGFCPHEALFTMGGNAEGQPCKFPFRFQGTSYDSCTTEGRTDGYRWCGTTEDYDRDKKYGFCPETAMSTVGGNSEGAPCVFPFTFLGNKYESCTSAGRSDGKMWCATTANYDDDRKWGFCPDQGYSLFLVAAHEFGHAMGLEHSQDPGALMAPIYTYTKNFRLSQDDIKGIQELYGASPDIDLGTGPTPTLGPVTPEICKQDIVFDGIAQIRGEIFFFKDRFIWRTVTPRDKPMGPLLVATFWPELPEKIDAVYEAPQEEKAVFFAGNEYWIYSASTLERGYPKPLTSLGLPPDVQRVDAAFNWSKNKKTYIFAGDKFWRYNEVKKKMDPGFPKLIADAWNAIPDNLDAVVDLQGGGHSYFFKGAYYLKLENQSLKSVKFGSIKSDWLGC", "test": "Inhibitory activity against gelatinase A", "conditions": "progelatinase A from human normal skin dermal fibroblasts (HNDF), APMA-activated; fluorogenic substrate MOCAc-Pro-Leu-Gly-A2pr(Dnp)-Ala-Arg-NH2 13.5 μM, 37° C.", "method": "(1) Inhibitory Activity Against Gelatinase A\nThe progelatinase A (5 μl; in assay buffer (40 μl)) was purified from human normal skin dermal fibroblasts (HNDF). It was activated by the addition of 10 mM of p-aminophenylmercuric acetate (APMA) ([…]) for 1 hour at 37° C.\nA mixture of the synthetic substrate (MOCAc-Pro-Leu-Gly-A2pr(Dnp)-Ala-Arg-NH2) (130 μl; a final concentration 13.5 μM) and a solution (20 μl) with or without various concentrations of the test compound was preincubated for 5 minutes at 37° C.\nThe solution of activated gelatinase A (50 μl/well) was mixed with the mixture and the mixture was incubated for 15 minutes at 37° C. The enzyme reaction was started. The enzyme activity was represented by increasing value of fluorescent intensity [Ex=325 nm (Ex)/393 nm (Em)] per 1 minute. Inhibitory activity was represented by inhibitory percentage (%) per enzyme activity without the test compound. For example, IC50 of the compound as Example 71 is 0.50 nM."}, "collagenase": {"target": "T3, collagenase (Homo sapiens, UniProt P03956)", "T3 construct": "endogenous in cells; host or cells: human normal skin dermal fibroblasts (HNDF)", "T3 sequence (P03956 100-469)": "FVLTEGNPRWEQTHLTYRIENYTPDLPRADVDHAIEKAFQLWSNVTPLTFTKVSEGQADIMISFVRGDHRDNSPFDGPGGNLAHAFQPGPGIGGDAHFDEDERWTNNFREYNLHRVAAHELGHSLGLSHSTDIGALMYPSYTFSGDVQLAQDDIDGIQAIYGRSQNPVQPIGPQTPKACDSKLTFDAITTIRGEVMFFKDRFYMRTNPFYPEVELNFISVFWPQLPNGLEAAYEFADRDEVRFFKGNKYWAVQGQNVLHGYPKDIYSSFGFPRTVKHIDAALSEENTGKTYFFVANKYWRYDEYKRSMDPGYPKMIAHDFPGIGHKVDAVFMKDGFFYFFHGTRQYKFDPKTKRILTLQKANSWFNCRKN", "test": "Inhibitory activity against collagenase", "conditions": "procollagenase from HNDF, trypsin-activated; thioester substrate 1.33 mM, 26° C., absorption at 324 nm", "method": "(2) Inhibitory Activity Against Collagenase\nThe procollagenase (5 μl; in assay buffer (105 μl)) was purified from human normal skin dermal fibroblasts (HNDF). It was activated by the addition of 1 mg/ml Trypsin (45 μl) for 1 minute at 37° C. Trypsin was inactivated by addition of 5 mg/ml soybean trypsin inhibitor (SBTI; 50 μl).\nA mixture of the synthetic substrate (Ac-Pro-Leu-Gly-[2-mercapto-4-methyl-pentanoyl]-Leu-Gly-OEt) (105 μl; a final concentration 1.33 mM) and a solution (20 μl) with or without various concentrations of the test compound was preincubated for 5 minutes at 26° C.\nThe solution of activated enzyme (75 μl/tube, 50 μl) was mixed with the mixture and the mixture was incubated for 10 minutes at 26° C.\nAbsorption at 324 nm was measured at 40 points over 10 minutes. Vmax value was determined as measured value in 30 points therein."}}}
{"smiles": "CCOCOC[C@H](C[C@H](C)C(=O)NO)NC(=O)c1ccc(Oc2ccccc2)cc1", "note": "[Example 71, N-Hydroxy-2(S)-methyl-5-ethoxymethoxy-4(S)-[N-(4-phenoxyphenylcarbonyl)-amino]pentanamide]", "values": [{"measurement": "IC50", "setting": "human stromelysin", "value": 0.026, "unit": "µM"}, {"measurement": "IC50", "setting": "gelatinase A", "value": 0.0005, "unit": "µM"}, {"measurement": "IC50", "setting": "collagenase", "value": 2.5, "unit": "µM"}]}
